Experimental data reported in US9682925B2, “Cyclopropaneamine compound” (TAKEDA PHARMACEUTICAL COMPANY LIMITED, priority 2011, dated 2017).
Counter-ions that a name gives are not always drawn.

What was measured:
Assay type in all cases: biochemical
MAO-A = molecular target: T1, MAO-A (Homo sapiens, UniProt P21397); assay: Measurement of MAO-A inhibitory activity (MAO-Glo Assay)
T1 construct: purchased Sigma-Aldrich Co. LLC
T1 sequence (P21397 1-527): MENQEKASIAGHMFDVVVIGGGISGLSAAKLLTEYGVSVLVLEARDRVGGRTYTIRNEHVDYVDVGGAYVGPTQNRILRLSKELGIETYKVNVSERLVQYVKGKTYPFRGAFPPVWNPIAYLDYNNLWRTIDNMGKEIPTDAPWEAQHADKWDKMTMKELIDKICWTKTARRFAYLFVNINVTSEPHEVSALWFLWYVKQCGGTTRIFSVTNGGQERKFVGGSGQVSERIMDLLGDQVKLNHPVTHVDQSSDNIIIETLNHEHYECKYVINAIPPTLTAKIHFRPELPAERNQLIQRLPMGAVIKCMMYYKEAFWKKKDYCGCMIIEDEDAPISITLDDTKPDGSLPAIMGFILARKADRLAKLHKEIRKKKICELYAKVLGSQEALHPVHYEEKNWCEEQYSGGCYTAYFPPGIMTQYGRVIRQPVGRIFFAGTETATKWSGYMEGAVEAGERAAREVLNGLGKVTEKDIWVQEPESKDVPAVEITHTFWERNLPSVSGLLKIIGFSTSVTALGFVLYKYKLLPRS
Method in brief: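 MAO-A (400 ng) was pre-incubated with compound 10 min at room temperature in 100 mM HEPES pH 7.5, 5% glycerol, then MAO substrate (160 μM stock) added for 60 min. Luciferin detection reagent, 20 min, luminescence; % inhibition against no-compound control minus no-enzyme blank.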

MAO-B = molecular target: T2, MAO-B (Homo sapiens, UniProt P27338); assay: Measurement of MAO-B inhibitory activity (MAO-Glo Assay)
T2 construct: purchased Sigma-Aldrich Co. LLC
T2 sequence (P27338 1-520): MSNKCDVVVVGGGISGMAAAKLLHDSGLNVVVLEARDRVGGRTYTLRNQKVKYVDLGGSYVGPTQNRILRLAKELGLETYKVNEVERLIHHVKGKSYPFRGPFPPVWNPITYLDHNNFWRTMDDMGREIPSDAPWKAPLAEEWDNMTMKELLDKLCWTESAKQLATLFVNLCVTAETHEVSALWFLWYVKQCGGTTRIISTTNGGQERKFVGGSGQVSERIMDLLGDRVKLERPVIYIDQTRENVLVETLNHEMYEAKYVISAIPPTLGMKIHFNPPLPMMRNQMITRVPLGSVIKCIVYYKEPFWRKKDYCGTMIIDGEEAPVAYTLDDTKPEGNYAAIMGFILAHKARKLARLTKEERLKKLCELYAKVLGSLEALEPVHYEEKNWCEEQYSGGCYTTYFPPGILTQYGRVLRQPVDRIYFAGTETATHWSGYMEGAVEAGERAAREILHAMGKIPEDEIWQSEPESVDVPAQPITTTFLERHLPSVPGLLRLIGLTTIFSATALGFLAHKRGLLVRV
Method in brief: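 Percent inhibition was calculated from luciferin-based luminescence, corrected with a blank lacking enzyme and a control lacking compound. The reaction ran 60 min at room temperature after adding MAO substrate (16 µM as added). This followed a 10 min compound–enzyme preincubation in HEPES pH 7.5 buffer.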

human LSD1(171-852) = molecular target: T3, human LSD1(171-852) (Homo sapiens, UniProt O60341); assay: Measurement of LSD1 inhibitory activity (time-resolved fluorescence, biotin-histone H3 mono methylated K4 peptide); settings: read-out: LSD1 IC50 value
T3 construct: to give hLSD1(171-852) purified product; made in house; host or cells: Escherichia coli C43(DE3) pLysS

Row | IC50 (MAO-A) | IC50 (MAO-B) | IC50 (human LSD1(171-852)) | Compound
1 | 3.3 µM | 4.7 µM | 0.11 µM | COc1ccc(CN[C@@H]2C[C@H]2c2ccc(NC(=O)c3ccc(-c4ccccc4)cc3)cc2)cc1 (relative stereo) [Example 43, N-(4-{trans-2-[(4-methoxybenzyl)-amino]cyclo-propyl}phenyl)-biphenyl-4-carboxamide]
2 | > 10 µM | 9.3 µM | < 0.1 µM | NCCN[C@@H]1C[C@H]1c1ccc(NC(=O)c2ccc(-c3ccccc3)cc2)cc1 (relative stereo) [Example 44, N-(4-{trans-2-[(2-aminoethyl)-amino]cyclo-propyl}phenyl)-biphenyl-4-carboxamide]
3 | > 10 µM | > 10 µM | 0.29 µM | O=C(Nc1ccc([C@@H]2C[C@H]2NC2CCCCCCC2)cc1)c1ccc(-c2ccccc2)cc1 (relative stereo) [Example 45, N-{4-[trans-2-(cyclooctyl-amino)cyclo-propyl]phenyl}-biphenyl-4-carboxamide]
4 | > 10 µM | > 10 µM | < 0.1 µM | COc1ccc(CN[C@@H]2C[C@H]2c2ccc(NC(=O)c3ccc(-c4ccccc4)cc3)cc2)cc1OC (relative stereo) [Example 46, N-(4-{trans-2-[(3,4-dimethoxy-benzyl)amino]cyclo-propyl}phenyl)-biphenyl-4-carboxamide]
5 | 1.8 µM | 1.7 µM | 0.19 µM | CC(N[C@@H]1C[C@H]1c1ccc(NC(=O)c2ccc(-c3ccccc3)cc2)cc1)c1ccccc1 (relative stereo) [Example 47, N-(4-{trans-2-[(1-phenylethyl)amino]-cyclopropyl}phenyl)-biphenyl-4-carboxamide]
6 | 4.3 µM | 3.8 µM | < 0.1 µM | COCC(C)N[C@@H]1C[C@H]1c1ccc(NC(=O)c2ccc(-c3ccccc3)cc2)cc1 (relative stereo) [Example 48, N-(4-{trans-2-[(2-methoxy-1-methyl-ethyl)amino]cyclo-propyl}phenyl)-biphenyl-4-carboxamide]
7 | > 10 µM | > 10 µM | < 0.1 µM | CCC(CC)N[C@@H]1C[C@H]1c1ccc(NC(=O)c2ccc(-c3ccccc3)cc2)cc1 (relative stereo) [Example 49, N-(4-{trans-2-[(1-ethylpropyl)amino]-cyclopropyl}phenyl)-biphenyl-4-carboxamide]
8 | > 10 µM | > 10 µM | < 0.1 µM | CN1CCC(N[C@@H]2C[C@H]2c2ccc(NC(=O)c3ccc(-c4ccccc4)cc3)cc2)CC1 (relative stereo) [Example 50, N-(4-{trans-2-[(1-methylpiperidin-4-yl)amino]cyclo-propyl}phenyl)-biphenyl-4-carboxamide]
9 | > 10 µM | > 10 µM | 0.1 µM | O=C(Nc1ccc([C@@H]2C[C@H]2NC2CCN(Cc3ccccc3)CC2)cc1)c1ccc(-c2ccccc2)cc1 (relative stereo) [Example 51, N-(4-{trans-2-[(1-benzylpiperidin-4-yl)amino]cyclo-propyl}phenyl)-biphenyl-4-carboxamide]
10 | > 10 µM | > 10 µM | 0.16 µM | O=C(Nc1ccc([C@@H]2C[C@H]2NCCOCc2ccccc2)cc1)c1ccc(-c2ccccc2)cc1 (relative stereo) [Example 52, N-{4-[trans-2-{[2-(benzyloxy)ethyl]-amino}cyclopropyl]-phenyl}biphenyl-4-carboxamide]
11 | 4 µM | 3.4 µM | 0.23 µM | O=C(Nc1ccc([C@@H]2C[C@H]2NCc2ccc(Cl)c(Cl)c2)cc1)c1ccc(-c2ccccc2)cc1 (relative stereo) [Example 53, N-(4-{trans-2-[(3,4-dichloro-benzyl)amino]-cyclopropyl}phenyl)-biphenyl-4-carboxamide]
12 | 0.85 µM | 1.5 µM | < 0.1 µM | COc1ccc(CN[C@@H]2C[C@H]2c2ccc(NC(=O)c3ccc(-c4ccccc4)cc3)cc2)cn1 (relative stereo) [Example 54]
13 | > 10 µM | > 10 µM | 0.13 µM | C=CCOC(=O)N1CCC(N[C@@H]2C[C@H]2c2ccc(NC(=O)c3ccc(-c4ccccc4)cc3)cc2)CC1 (relative stereo) [Example 55, allyl 4-{[trans-2-{4-[(biphenyl-4-yl-carbonyl)amino]-phenyl}cyclo-propyl]amino}-piperidine-1-carboxylate]
14 | > 10 µM | > 10 µM | 0.26 µM | CC(COc1ccccc1)N[C@@H]1C[C@H]1c1ccc(NC(=O)c2ccc(-c3ccccc3)cc2)cc1 (relative stereo) [Example 56, N-(4-{trans-2-[(1-methyl-2-phenoxyethyl)-amino]cyclo-propyl}phenyl)-biphenyl-4-carboxamide]
15 | > 10 µM | > 10 µM | 1.9 µM | O=C(Nc1ccc([C@@H]2C[C@H]2N(CC2CC2)CC2CC2)cc1)c1ccc(-c2ccccc2)cc1 (relative stereo) [Example 60, N-(4-{trans-2-[bis(cyclopropylmethyl)amino]cyclopropyl}phenyl)biphenyl-4-carboxamide hydrochloride]
16 | 2.2 µM | 3.3 µM | < 0.1 µM | O=C(Nc1ccc([C@@H]2C[C@H]2NC2CCOCC2)cc1)c1ccc(-c2ccccc2)cc1 (relative stereo) [Example 61, N-{4-[trans-2-(tetrahydro-2H-pyran-4-ylamino)cyclopropyl]phenyl}biphenyl-4-carboxamide hydrochloride]
17 | > 10 µM | > 10 µM | < 0.1 µM | CC(=O)N1CCC(N[C@@H]2C[C@H]2c2ccc(NC(=O)c3ccc(-c4ccccc4)cc3)cc2)CC1 (relative stereo) [Example 62, N-(4-{trans-2-[(1-acetylpiperidin-4-yl)amino]cyclopropyl}phenyl)biphenyl-4-carboxamide hydrochloride]
18 | > 10 µM | > 10 µM | < 0.1 µM | O=C(Nc1ccc([C@@H]2C[C@H]2NC2CCN(CC(F)(F)F)CC2)cc1)c1ccc(-c2ccccc2)cc1 (relative stereo) [Example 63, N-{4-[trans-2-{[1-(2,2,2-trifluoroethyl)piperidin-4-yl]amino}cyclopropyl]phenyl}biphenyl-4-carboxamide hydrochloride]
19 | 8.5 µM | > 10 µM | 0.2 µM | CN(C(=O)c1ccc(-c2ccccc2)cc1)c1ccc([C@@H]2C[C@H]2NCC2CC2)cc1 (relative stereo) [Example 64, N-(4-{trans-2-[(cyclopropylmethyl)amino]cyclopropyl}phenyl)-N-methylbiphenyl-4-carboxamide hydrochloride]
20 | 8.6 µM | 9.6 µM | < 0.1 µM | O=C(Nc1ccc([C@@H]2C[C@H]2NCC2CC2)cc1)c1cccc(C(F)(F)F)c1 (relative stereo) [Example 65, N-(4-{trans-2-[(cyclopropylmethyl)amino]cyclopropyl}phenyl)-3-(trifluoromethyl)benzamide hydrochloride]
21 | > 10 µM | > 10 µM | < 0.1 µM | O=C(Nc1ccc([C@@H]2C[C@H]2NCc2c[nH]cn2)cc1)c1ccc(-c2ccccc2)cc1 (relative stereo) [Example 66, N-(4-{trans-2-[(1H-imidazol-4-ylmethyl)amino]cyclopropyl}phenyl)biphenyl-4-carboxamide dihydrochloride]
22 | > 10 µM | > 10 µM | < 0.1 µM | O=C(Nc1ccc([C@@H]2C[C@H]2NCc2ccccc2F)cc1)c1cccc(C(F)(F)F)c1 (relative stereo) [Example 67, N-(4-{trans-2-[(2-fluorobenzyl)amino]cyclopropyl}phenyl)-3-(trifluoromethyl)benzamide hydrochloride]
23 | > 10 µM | > 10 µM | < 0.1 µM | Cc1ccc(C(=O)Nc2ccc([C@@H]3C[C@H]3NCC3CC3)cc2)cc1 (relative stereo) [Example 68, N-(4-{trans-2-[(cyclopropylmethyl)amino]cyclopropyl}phenyl)-4-methylbenzamide hydrochloride]
